From patent US7718767B2, “3-ether and 3-thioether substituted cyclosporin derivatives for the treatment and prevention of hepatitis C infection” (Scynexis, Inc., priority 2006, dated 2010)
Counter-ions that a name gives are not always drawn.

Experiments:
HIV-1IIIB = test: HIV MTS cytoprotection assay in CEM-SS cells; assay type: cell-based, human immunodeficiency virus-1; settings: 6 days post-infection, concentration inhibiting virus replication by 50%
HCV RNA replicon ET = test: HCV RNA replicon luciferase reporter assay, antiviral activity; assay type: cell-based; settings: ET replicon cells, 72 h, LUC activity; for EC50: concentration reducing viral replication by 50%; for EC90: concentration reducing viral replication by 90%
[1] = test system: human hepatoma cell line ET; test: Cytotoxicity in the replicon cell line, colorimetric assay of cell numbers; settings: ET cells, 72 h; for IC50: read-out: Cytotoxicity IC50, concentration inhibiting cell viability by 50%; for IC90: read-out: Cytotoxicity IC90, concentration inhibiting cell viability by 90%
Excerpt: Compounds were examined in the human hepatoma cell line ET (lub ubi heo/ET), a HCV RNA replicon containing a stable luciferase (LUC) reporter. The HCV RNA replicon ET contains the 5′ end of HCV (with the HCV Internal Ribosome Entry Site (IRES) and the first few amino acids of the HCV core protein) which drives the production of a firefly luciferase (LUC), ubiquitin, and neomycin phosphotransferase (NeoR) fusion protein. Ubiquitin cleavage releases the LUC and NeoR proteins. The EMCV IRES element controls the translation of the HCV […] NS3-NS5. The NS3 protein cleaves the HCV polyprotein to release the mature NS3, NS4A, NS4B, NS5A and NS5B proteins that are required for HCV replication. At the 3′ end of the replicon is the authentic 3′ NTR of HCV. The activity of the LUC reporter is directly proportional to HCV replication levels and positive-control antiviral compounds produce a reproducible antiviral response using the LUC endpoint.
The compounds were dissolved in DMSO at five half-log concentrations each, ranging from either 0.02 to 2.0 μM, 0.03 to 3 μM, […], or 1 to 100 μM. Subconfluent cultures of the ET line were plated out into 96 well plates dedicated for the analysis of cell numbers (cytotoxicity) or antiviral activity and the next day the compounds were added to the appropriate wells. The cells were processed 72 h later when the cells were still subconfluent. […] The activity of the LUC reporter is directly proportional to HCV RNA levels in the human cell line. The HCV-replicon assay was validated in parallel experiments using interferon-alpha-2b as a positive control.

CEM-SS cells = test: Compound cytotoxicity in the HIV MTS assay (cells plus drug only); assay type: cell-based, human; settings: 50% inhibition of cell growth
Method: In this MTS cytoprotection assay, each experiment included cell control wells (cells only), virus control wells (cells plus virus), drug toxicity wells (cells plus drug only), drug colorimetric control wells (drug only) as well as experimental wells (drug plus cells plus virus). […] HIV-1RF was added to each well in a volume of 50 μL, the amount of virus determined to give approximately 90% cell killing at 6 days post-infection. At assay termination, assay plates were stained with the soluble tetrazolium-based dye MTS (CellTiter 96 Reagent, Promega) to determine cell viability and quantify compound toxicity. MTS is metabolized by the mitochondria enzymes of metabolically active cells to yield a soluble formazan product, providing a quantitative analysis of cell viability and compound cytotoxicity. The assay was validated in parallel experiments using Zidovudine (3′-azido-3′-deoxythymidine or AZT) as a positive control.

Compound	EC50 (HIV-1IIIB)	EC50 (HCV RNA replicon ET)	EC90 (HCV RNA replicon ET)	IC50 [1]	IC90 [1]	IC50 (CEM-SS cells)
3-(ethoxy)-4-(gamma-hydroxymethylleucine)cyclosporin [W]	680 nM	130 nM	510 nM			
3-(isopropoxy)-4-(gamma-hydroxymethylleucine)cyclosporin [V]	440 nM	360 nM	1200 nM			
C/C=C/C[C@@H](C)[C@@H](O)[C@H]1C(=O)N[C@@H](CC)C(=O)N(C)[C@H](OCCN2CCOCC2)C(=O)N(C)[C@@H](CC(C)C)C(=O)N[C@@H](C(C)C)C(=O)N(C)[C@@H](CC(C)C)C(=O)N[C@@H](C)C(=O)N[C@H](C)C(=O)N(C)[C@@H](CC(C)C)C(=O)N(C)[C@@H](CC(C)C)C(=O)N(C)[C@@H](C(C)C)C(=O)N1C [Compound L, 3-[2-(N-morpholine)ethoxy)cyclosporin]	1930 nM	280 nM	1250 nM	11.5 µM	> 20 µM	19.5 µM
C/C=C/C[C@@H](C)[C@@H](O)[C@H]1C(=O)N[C@@H](CC)C(=O)N(C)[C@H](SCCOC)C(=O)N(C)[C@@H](CC(C)(C)O)C(=O)N[C@@H](C(C)C)C(=O)N(C)[C@@H](CC(C)C)C(=O)N[C@@H](C)C(=O)N[C@H](C)C(=O)N(C)[C@@H](CC(C)C)C(=O)N(C)[C@@H](CC(C)C)C(=O)N(C)[C@@H](C(C)C)C(=O)N1C [Compound N, 3-(2-methoxyethylthio)-4-(gamma-hydroxymethylleucine)cyclosporin]	350 nM	< 200 nM	< 200 nM	> 20 µM	> 20 µM	
C/C=C/C[C@@H](C)[C@@H](O)[C@H]1C(=O)N[C@@H](CC)C(=O)N(C)[C@H](SCCN(C)C)C(=O)N(C)[C@@H](CC(C)(C)O)C(=O)N[C@@H](C(C)C)C(=O)N(C)[C@@H](CC(C)C)C(=O)N[C@@H](C)C(=O)N[C@H](C)C(=O)N(C)[C@@H](CC(C)C)C(=O)N(C)[C@@H](CC(C)C)C(=O)N(C)[C@@H](C(C)C)C(=O)N1C [Compound O, 3-[(R)-2-(N,N-dimethylamino)ethylthio-Sar]-4-(gamma-hydroxymethylleucine)cyclosporin]	60 nM	122 nM	300 nM	13.4 µM	> 20 µM	20 µM
C/C=C/C[C@@H](C)[C@@H](O)[C@H]1C(=O)N[C@@H](CC)C(=O)N(C)C(OC)C(=O)N(C)[C@@H](CC(C)(C)O)C(=O)N[C@@H](C(C)C)C(=O)N(C)[C@@H](CC(C)C)C(=O)N[C@@H](C)C(=O)N[C@H](C)C(=O)N(C)[C@@H](CC(C)C)C(=O)N(C)[C@@H](CC(C)C)C(=O)N(C)[C@@H](C(C)C)C(=O)N1C (stereo partly drawn) [Compound T, 3-(methoxy)-4-(gamma-hydroxymethylleucine)cyclosporin]				> 2 µM	> 2 µM	18 µM
C/C=C/C[C@@H](C)[C@@H](O)[C@H]1C(=O)N[C@@H](CC)C(=O)N(C)[C@H](OC(C)C)C(=O)N(C)[C@@H](CC(C)C)C(=O)N[C@@H](C(C)C)C(=O)N(C)[C@@H](CC(C)C)C(=O)N[C@@H](C)C(=O)N[C@H](C)C(=O)N(C)[C@@H](CC(C)C)C(=O)N(C)[C@@H](CC(C)C)C(=O)N(C)[C@@H](C(C)C)C(=O)N1C [D, 3-(isopropoxy)cyclosporin]	1360 nM	290 nM	1320 nM	17.2 µM	> 20 µM	> 20 µM
C/C=C/C[C@@H](C)[C@@H](O)[C@H]1C(=O)N[C@@H](CC)C(=O)N(C)C(OCCCO)C(=O)N(C)[C@@H](CC(C)C)C(=O)N[C@@H](C(C)C)C(=O)N(C)[C@@H](CC(C)C)C(=O)N[C@@H](C)C(=O)N[C@H](C)C(=O)N(C)[C@@H](CC(C)C)C(=O)N(C)[C@@H](CC(C)C)C(=O)N(C)[C@@H](C(C)C)C(=O)N1C (stereo partly drawn) [H, 3-(3-hydroxypropoxy)cyclosporin]	1380 nM	< 200 nM	370 nM	> 20 µM	> 20 µM	13.3 µM
CC=CCC(C)C(O)C1C(=O)NC(CC)C(=O)N(C)C(OCCN2CCCCC2)C(=O)N(C)C(CC(C)C)C(=O)NC(C(C)C)C(=O)N(C)C(CC(C)C)C(=O)NC(C)C(=O)NC(C)C(=O)N(C)C(CC(C)C)C(=O)N(C)C(CC(C)C)C(=O)N(C)C(C(C)C)C(=O)N1C (stereo not drawn) [K, 3-[2-(piperidin-1-yl)ethoxy]cyclosporin]		260 nM	590 nM	5.5 µM	17.8 µM	
C/C=C/C[C@@H](C)[C@@H](O)[C@H]1C(=O)N[C@@H](CC)C(=O)N(C)C(OCC)C(=O)N(C)[C@@H](CC(C)C)C(=O)N[C@@H](C(C)C)C(=O)N(C)[C@@H](CC(C)C)C(=O)N[C@@H](C)C(=O)N[C@H](C)C(=O)N(C)[C@@H](CC(C)C)C(=O)N(C)[C@@H](CC(C)C)C(=O)N(C)[C@@H](C(C)C)C(=O)N1C (stereo partly drawn) [M, 3-ethoxycyclosporin]		3350 nM	6110 nM	> 20 µM	> 20 µM	
CC=CCC(C)C(O)C1C(=O)NC(CC)C(=O)N(C)C(SCCN(C)C)C(=O)N(C)C(CC(C)(C)O)C(=O)NC(C(C)C)C(=O)N(C)C(CC(C)C)C(=O)NC(C)C(=O)NC(C)C(=O)N(C)C(CC(C)C)C(=O)N(C)C(CC(C)C)C(=O)N(C)C(C(C)C)C(=O)N1C [MeSO2, [(R)-2-(N,N-dimethylamino)ethylthio-Sar]3[4′-hydroxy-MeLeu]4 cyclosporin]		160 nM	500 nM	> 2 µM	> 2 µM	
C/C=C/C[C@@H](C)[C@@H](O)[C@H]1C(=O)N[C@@H](CC)C(=O)N(C)C(SCC)C(=O)N(C)[C@@H](CC(C)C)C(=O)N[C@@H](C(C)C)C(=O)N(C)[C@@H](CC(C)C)C(=O)N[C@@H](C)C(=O)N[C@H](C)C(=O)N(C)[C@@H](CC(C)C)C(=O)N(C)[C@@H](CC(C)C)C(=O)N(C)[C@@H](C(C)C)C(=O)N1C (stereo partly drawn) [P, 3-ethylthiocyclosporin]	160 nM	230 nM	580 nM	6.15 µM	> 20 µM	6.15 µM
CC=CCC(C)C(O)C1C(=O)NC(CC)C(=O)N(C)C(SCCN(C)C)C(=O)N(C)C(CC(C)(C)O)C(=O)NC(C(C)C)C(=O)N(C)C(CC(C)C)C(=O)NC(C)C(=O)NC(C)C(=O)N(C)C(CC(C)C)C(=O)N(C)C(CC(C)C)C(=O)N(C)C(C(C)C)C(=O)N1C [acetate, [(R)-2-(N,N-dimethylamino)ethylthio-Sar]3[4′-hydroxy-MeLeu]4 cyclosporin]			300 nM	> 2 µM	> 2 µM	
CC=CCC(C)C(O)C1C(=O)NC(CC)C(=O)N(C)C(SCCN(C)C)C(=O)N(C)C(CC(C)(C)O)C(=O)NC(C(C)C)C(=O)N(C)C(CC(C)C)C(=O)NC(C)C(=O)NC(C)C(=O)N(C)C(CC(C)C)C(=O)N(C)C(CC(C)C)C(=O)N(C)C(C(C)C)C(=O)N1C [hydrochloride, [(R)-2-(N,N-dimethylamino)ethylthio-Sar]3[4′-hydroxy-MeLeu]4 cyclosporin]		110 nM	380 nM	> 2 µM	> 2 µM	
CC=CCC(C)C(O)C1C(=O)NC(CC)C(=O)N(C)C(SCCN(C)C)C(=O)N(C)C(CC(C)(C)O)C(=O)NC(C(C)C)C(=O)N(C)C(CC(C)C)C(=O)NC(C)C(=O)NC(C)C(=O)N(C)C(CC(C)C)C(=O)N(C)C(CC(C)C)C(=O)N(C)C(C(C)C)C(=O)N1C [phosphate, [(R)-2-(N,N-dimethylamino)ethylthio-Sar]3[4′-hydroxy-MeLeu]4 cyclosporin]		130 nM	470 nM	> 2 µM	> 2 µM	
[(R)-2-(N,N-dimethylamino)ethylthio-Sar]3[4′-hydroxy-MeLeu]4 cyclosporin [citrate]		110 nM	410 nM	> 2 µM	> 2 µM	
[(R)-2-(N,N-dimethylamino)ethylthio-Sar]3[4′-hydroxy-MeLeu]4 cyclosporin [propionate]		100 nM	320 nM	> 2 µM	> 2 µM	
